Results: ChEMBL document CHEMBL4130368, “Thienopyrimidine derivatives exert their anticancer efficacy via apoptosis induction, oxidative stress and mitotic catastrophe” (Eur J Med Chem, 2017)
Calls of active or inactive are those of the source. No cut-off for these calls is given here.

Assays:
HCT-116 [1] = experiment: Induction of apoptosis in human HCT116 cells assessed as late apoptotic cells at 1 uM measured after overnight incubation by mitotracker red/alexa fluor-488 Annexin V staining-based flow cytometry (reference value: 0%); assay type: functional
2008 [2] = experiment: Induction of apoptosis in human OV2008 cells assessed as necrotic cells at 2 uM measured after overnight incubation by mitotracker red/alexa fluor-488 Annexin V staining-based flow cytometry (reference value: 6.31%); assay type: functional
2008 [3] = experiment: Induction of apoptosis in human OV2008 cells assessed as late apoptotic cells at 2 uM measured after overnight incubation by mitotracker red/alexa fluor-488 Annexin V staining-based flow cytometry (reference value: 0.255%); assay type: functional
A2780 [4] = experiment: Induction of apoptosis in human A2780 cells assessed as necrotic cells at 2 uM measured after overnight incubation by mitotracker red/alexa fluor-488 Annexin V staining-based flow cytometry (reference value: 9.94%); assay type: functional
A2780 [5] = experiment: Induction of morphological changes in human A2780 cells at 0.1 to 3 uM after 68 hrs by microscopic method; assay type: functional, cell-based
A2780 [6] = experiment: Cell cycle arrest in human A2780 cells assessed as accumulation at G1 phase at 2 uM measured after overnight incubation by propidium iodide staining-based flow cytometry (reference value: 51.1%); assay type: functional
A2780 [7] = experiment: Induction of apoptosis in human A2780 cells assessed as viable cells at 2 uM measured after overnight incubation by mitotracker red/alexa fluor-488 Annexin V staining-based flow cytometry (reference value: 78.1%); assay type: functional; conditions: read-out: Activity
A2780 [8] = experiment: Inhibition of colony formation in human A2780 cells at 1 to 2 uM after 24 hrs by crystal violet dye based assay; assay type: functional, cell-based
A2780 [9] = experiment: Antiproliferative activity against human A2780 cells after 72 hrs by MTT assay; assay type: functional, cell-based; conditions: A2780, 72 h
2008 [10] = experiment: Cell cycle arrest in human OV2008 cells assessed as accumulation at G1 phase at 1 uM measured after overnight incubation by propidium iodide staining-based flow cytometry (reference value: 52.6%); assay type: functional
HCT-116 [11] = experiment: Induction of morphological changes in human HCT116 cells at 0.1 to 3 uM after 68 hrs by microscopic method; assay type: functional, cell-based
A2780 [12] = experiment: Cell cycle arrest in human A2780 cells assessed as accumulation at S phase at 2 uM measured after overnight incubation by propidium iodide staining-based flow cytometry (reference value: 15.2%); assay type: functional
A2780 [13] = experiment: Induction of apoptosis in human A2780 cells assessed as necrotic cells at 1 uM measured after overnight incubation by mitotracker red/alexa fluor-488 Annexin V staining-based flow cytometry (reference value: 9.94%); assay type: functional
HCT-116 [14] = experiment: Induction of apoptosis in human HCT116 cells assessed as early apoptotic cells at 2 uM measured after overnight incubation by mitotracker red/alexa fluor-488 Annexin V staining-based flow cytometry (reference value: 8.36%); assay type: functional
2008 [15] = experiment: Cell cycle arrest in human OV2008 cells assessed as accumulation at subG1 phase at 2 uM measured after overnight incubation by propidium iodide staining-based flow cytometry (reference value: 2.64%); assay type: functional
2008 [16] = experiment: Induction of apoptosis in human OV2008 cells assessed as viable cells at 1 uM measured after overnight incubation by mitotracker red/alexa fluor-488 Annexin V staining-based flow cytometry (reference value: 80.5%); assay type: functional; conditions: read-out: Activity
A2780 [17] = experiment: Induction of cellular oxidative stress in human A2780 cells assessed as increase in ROS levels at 0.5 to 4 uM after 48 hrs by DCFDA dye-based fluorescence microscopic method; assay type: functional, cell-based
2008 [18] = experiment: Induction of apoptosis in human OV2008 cells assessed as early apoptotic cells at 2 uM measured after overnight incubation by mitotracker red/alexa fluor-488 Annexin V staining-based flow cytometry (reference value: 12.9%); assay type: functional
A2780 [19] = experiment: Cell cycle arrest in human A2780 cells assessed as accumulation at subG1 phase at 2 uM measured after overnight incubation by propidium iodide staining-based flow cytometry (reference value: 8.88%); assay type: functional
HCT-116 [20] = experiment: Cell cycle arrest in human HCT116 cells assessed as accumulation at G2 phase at 1 uM measured after overnight incubation by propidium iodide staining-based flow cytometry (reference value: 24%); assay type: functional
HCT-116 [21] = experiment: Cell cycle arrest in human HCT116 cells assessed as accumulation at G2 phase at 2 uM measured after overnight incubation by propidium iodide staining-based flow cytometry (reference value: 24%); assay type: functional
2008 [22] = experiment: Induction of apoptosis in human OV2008 cells assessed as early apoptotic cells at 1 uM measured after overnight incubation by mitotracker red/alexa fluor-488 Annexin V staining-based flow cytometry (reference value: 12.9%); assay type: functional
A2780 [23] = experiment: Cell cycle arrest in human A2780 cells assessed as accumulation at G2 phase at 2 uM measured after overnight incubation by propidium iodide staining-based flow cytometry (reference value: 24.9%); assay type: functional
HCT-116 [24] = experiment: Cell cycle arrest in human HCT116 cells assessed as accumulation at subG1 phase at 2 uM measured after overnight incubation by propidium iodide staining-based flow cytometry (reference value: 0.154%); assay type: functional
2008 [25] = experiment: Cell cycle arrest in human OV2008 cells assessed as accumulation at S phase at 2 uM measured after overnight incubation by propidium iodide staining-based flow cytometry (reference value: 10.8%); assay type: functional
HCT-116 [26] = experiment: Induction of mitotic catastrophe in human HCT116 cells assessed as formation of de-condensed multiple micronuclei at 0.5 to 2 uM measured after overnight incubation by DAPI-staining based microscopy; assay type: functional, cell-based
HCT-116 [27] = experiment: Induction of apoptosis in human HCT116 cells assessed as late apoptotic cells at 2 uM measured after overnight incubation by mitotracker red/alexa fluor-488 Annexin V staining-based flow cytometry (reference value: 0%); assay type: functional
A2780 [28] = experiment: Cell cycle arrest in human A2780 cells assessed as accumulation at S phase at 1 uM measured after overnight incubation by propidium iodide staining-based flow cytometry (reference value: 15.2%); assay type: functional
A2780 [29] = experiment: Induction of mitotic catastrophe in human A2780 cells assessed as multinuclear changes at 0.5 to 2 uM measured after overnight incubation by DAPI-staining based microscopy; assay type: functional, cell-based
HCT-116 [30] = experiment: Antiproliferative activity against bak deficient human HCT116 cells after 72 hrs by MTT assay; assay type: functional, cell-based; conditions: HCT-116, 72 h
HCT-116 [31] = experiment: Cell cycle arrest in human HCT116 cells assessed as accumulation at G1 phase at 1 uM measured after overnight incubation by propidium iodide staining-based flow cytometry (reference value: 63.5%); assay type: functional
2008 [32] = experiment: Induction of apoptosis in human OV2008 cells assessed as viable cells at 2 uM measured after overnight incubation by mitotracker red/alexa fluor-488 Annexin V staining-based flow cytometry (reference value: 80.5%); assay type: functional; conditions: read-out: Activity
2008 [33] = experiment: Cell cycle arrest in human OV2008 cells assessed as accumulation at G1 phase at 2 uM measured after overnight incubation by propidium iodide staining-based flow cytometry (reference value: 52.6%); assay type: functional
HCT-116 [34] = experiment: Cell cycle arrest in human HCT116 cells assessed as accumulation at subG1 phase at 1 uM measured after overnight incubation by propidium iodide staining-based flow cytometry (reference value: 0.154%); assay type: functional
HCT-116 [35] = experiment: Inhibition of colony formation in human HCT116 cells at 1 to 2 uM after 24 hrs by crystal violet dye based assay; assay type: functional, cell-based
LN-229 = experiment: Antiproliferative activity against human LN229 cells after 72 hrs by MTT assay; assay type: functional, cell-based; conditions: LN-229, 72 h

- IC50 (A2780 [9]): 1.2 µM
- IC50 (HCT-116 [30]): 1.4 µM
SMILES: COc1ccc(-c2nc(O)c3c4c(sc3n2)CCCC4)cc1
- Activity (HCT-116 [1]): 0%
- Activity 2008 [2]: 3.79%
- Activity 2008 [3]: 0.057%
- Activity (A2780 [4]): 5.77%
- Activity (A2780 [5]): Active
- Activity (A2780 [6]): 15.5%
- viability at 2 µM (A2780 [7]): 42.9%
- inhibition (A2780 [8]): Dose-dependent effect
- Activity 2008 [10]: 19.5%
- Activity (HCT-116 [11]): Active
- Activity (A2780 [12]): 9.02%
- Activity (A2780 [13]): 0.421%
- Activity (HCT-116 [14]): 25.9%
- Activity 2008 [15]: 1.29%
- viability at 1 µM 2008 [16]: 75.1%
- Activity (A2780 [17]): Active
- Activity 2008 [18]: 22.2%
- Activity (A2780 [19]): 7.54%
- Activity (HCT-116 [20]): 47.1%
- Activity (HCT-116 [21]): 54.8%
- Activity 2008 [22]: 20.3%
- Activity (A2780 [23]): 63.5%
- Activity (HCT-116 [24]): 0.097%
- Activity 2008 [25]: 31.8%
- Activity (HCT-116 [26]): Active
- Activity (HCT-116 [27]): 0%
- Activity (A2780 [28]): 10.4%
- Activity (A2780 [29]): Active
- Activity (HCT-116 [31]): 37.5%
- viability at 2 µM 2008 [32]: 73.9%
- Activity 2008 [33]: 13.6%
- Activity (HCT-116 [34]): 0.087%
- inhibition (HCT-116 [35]): Dose-dependent effect
- IC50 (LN-229): 0.5 µM
